≈ marks a conversion by molar mass, not a printed value.
Tests used:
Assay in all cases: Agar dilution MIC
S. aureus ATCC 29213 = type: cell-based, Staphylococcus aureus; details: Staphylococcus aureus, ATCC29213, 35° C., 16-20 hours, read-out: Antimicrobial Screening (MIC)
Method: (§1) Briefly, the compounds of invention were weighed, dissolved in dimethyl sulfoxide, serially two fold diluted in the same solvent and then incorporated into molten Mueller Hinton Agar (MHA) in a petridish just before solidification, with each petridish containing a different concentration of a compound.
(§2) The bacterial inoculum was prepared by picking 3 to 5 well isolated bacterial colonies with the same morphological appearance from an 18-24 hours old culture with an inoculating loop, transferring the growth to a tube containing 3 mL of normal saline and adjusting the turbidity of the saline suspension to 0.5 Mc Farland Turbidity Standard equivalent to a bacterial population of 1.5×10^8 colony forming units (CFU) per mL of suspension. The suspension was diluted 1:10 in saline (i.e. 0.5 mL suspension 4.5 mL saline) to get a bacterial population of 1.5×10^7 CFU/mL as inoculum.
(§3) The inoculated petridishes were incubated at 35° C. in an ambient atmosphere for 16-20 hours.

S. aureus ATCC 43300 = type: cell-based, Staphylococcus aureus; details: Staphylococcus aureus, ATCC43300, 35° C., 16-20 hours, read-out: Antimicrobial Screening (MIC)
Method: as §1, §2, §3

S. aureus MRO 00013 = type: cell-based, Staphylococcus aureus; details: Staphylococcus aureus, MRO00013, 35° C., 16-20 hours, read-out: Antimicrobial Screening (MIC)
Method: as §1, §2, §3

S. aureus MRO 0001 = type: cell-based, Staphylococcus aureus; details: Staphylococcus aureus, MRO0001, 35° C., 16-20 hours, read-out: Antimicrobial Screening (MIC)
Method: as §1, §2, §3

S. aureus MRO 00030 = type: cell-based, Staphylococcus aureus; details: Staphylococcus aureus, MRO00030, 35° C., 16-20 hours, read-out: Antimicrobial Screening (MIC)
Method: as §1, §2, §3

S. aureus MRO 0003 = type: cell-based, Staphylococcus aureus; details: Staphylococcus aureus, MRO0003, 35° C., 16-20 hours, read-out: Antimicrobial Screening (MIC)
Method: as §1, §2, §3

S. aureus MRO 00048 = type: cell-based, Staphylococcus aureus; details: Staphylococcus aureus, MRO00048, 35° C., 16-20 hours, read-out: Antimicrobial Screening (MIC)
Method: as §1, §2, §3

S. aureus MRO 00055 = type: cell-based, Staphylococcus aureus; details: Staphylococcus aureus, MRO00055, 35° C., 16-20 hours, read-out: Antimicrobial Screening (MIC)
Method: as §1, §2, §3

S. aureus MRO 00059 = type: cell-based, Staphylococcus aureus; details: Staphylococcus aureus, MRO00059, 35° C., 16-20 hours, read-out: Antimicrobial Screening (MIC)
Method: as §1, §2, §3

S. aureus MRO 002053 = type: cell-based, Staphylococcus aureus; details: Staphylococcus aureus, MRO002053, 35° C., 16-20 hours, read-out: Antimicrobial Screening (MIC)
Method: as §1, §2, §3

[1] = system: S. epidermidis MRO 002046; type: cell-based; details: Staphylococcus epidermidis, MRO002046, 35° C., 16-20 hours, read-out: Antimicrobial Screening (MIC)
Method: as §1, §2, §3

S. epidermidis MRO 02002 = type: cell-based; details: Staphylococcus epidermidis, MRO02002, 35° C., 16-20 hours, read-out: Antimicrobial Screening (MIC)
Method: as §1, §2, §3

S. epidermidis MRO 02045 = type: cell-based; details: Staphylococcus epidermidis, MRO02045, 35° C., 16-20 hours, read-out: Antimicrobial Screening (MIC)
Method: as §1, §2, §3

S. epidermidis MRO 02095 = type: cell-based; details: Staphylococcus epidermidis, MRO02095, 35° C., 16-20 hours, read-out: Antimicrobial Screening (MIC)
Method: as §1, §2, §3

[2] = system: S. haemolyticus MRO 02064; type: cell-based; details: Staphylococcus haemolyticus, MRO02064, 35° C., 16-20 hours, read-out: Antimicrobial Screening (MIC)
Method: as §1, §2, §3

[3] = system: S. saprophyticus MRO 02003; type: cell-based; details: Staphylococcus saprophyticus, MRO02003, 35° C., 16-20 hours, read-out: Antimicrobial Screening (MIC)
Method: as §1, §2, §3

E. faecalis ATCC 29212 = type: cell-based, Enterococcus faecalis; details: Enterococcus faecalis, ATCC29212, 35° C., 16-20 hours, read-out: Antimicrobial Screening (MIC)
Method: as §1, §2, §3

E. faecalis ATCC 51299 = type: cell-based, Enterococcus faecalis; details: Enterococcus faecalis, ATCC51299, 35° C., 16-20 hours, read-out: Antimicrobial Screening (MIC)
Method: as §1, §2, §3

E. faecalis MRO 04035 = type: cell-based, Enterococcus faecalis; details: Enterococcus faecalis, MRO04035, 35° C., 16-20 hours, read-out: Antimicrobial Screening (MIC)
Method: as §1, §2, §3

E. faecalis MRO 04050 = type: cell-based, Enterococcus faecalis; details: Enterococcus faecalis, MRO04050, 35° C., 16-20 hours, read-out: Antimicrobial Screening (MIC)
Method: as §1, §2, §3

E. faecalis MRO 04205 = type: cell-based, Enterococcus faecalis; details: Enterococcus faecalis, MRO04205, 35° C., 16-20 hours, read-out: Antimicrobial Screening (MIC)
Method: as §1, §2, §3

E. faecium ATCC 700221 = type: cell-based, Enterococcus faecium; details: Enterococcus faecium, ATCC700221, 35° C., 16-20 hours, read-out: Antimicrobial Screening (MIC)
Method: as §1, §2, §3

E. faecium MRO 04037 = type: cell-based, Enterococcus faecium; details: Enterococcus faecium, MRO04037, 35° C., 16-20 hours, read-out: Antimicrobial Screening (MIC)
Method: as §1, §2, §3

E. faecium MRO 04038 = type: cell-based, Enterococcus faecium; details: Enterococcus faecium, MRO04038, 35° C., 16-20 hours, read-out: Antimicrobial Screening (MIC)
Method: as §1, §2, §3

E. faecium MRO 04198 = type: cell-based, Enterococcus faecium; details: Enterococcus faecium, MRO04198, 35° C., 16-20 hours, read-out: Antimicrobial Screening (MIC)
Method: as §1, §2, §3

[4] = system: M. catarrhalis ATCC 43617; type: cell-based, Moraxella catarrhalis; details: Moraxella catarrhalis, ATCC43617, 35° C., 16-20 hours, read-out: Antimicrobial Screening (MIC)
Method: as §1, §2, §3

[5] = system: M. catarrhalis ATCC 43627; type: cell-based, Moraxella catarrhalis; details: Moraxella catarrhalis, ATCC43627, 35° C., 16-20 hours, read-out: Antimicrobial Screening (MIC)
Method: as §1, §2, §3

[6] = system: M. catarrhalis ATCC 43628; type: cell-based, Moraxella catarrhalis; details: Moraxella catarrhalis, ATCC43628, 35° C., 16-20 hours, read-out: Antimicrobial Screening (MIC)
Method: as §1, §2, §3

MIC (S. aureus ATCC 29213) [µg/mL] | MIC (S. aureus ATCC 43300) [µg/mL] | MIC (S. aureus MRO 00013) [µg/mL] | MIC (S. aureus MRO 0001) [µg/mL] | MIC (S. aureus MRO 00030) [µg/mL] | MIC (S. aureus MRO 0003) [µg/mL] | MIC (S. aureus MRO 00048) [µg/mL] | MIC (S. aureus MRO 00055) [µg/mL] | MIC (S. aureus MRO 00059) [µg/mL] | MIC (S. aureus MRO 002053) [µg/mL] | MIC [1] [µg/mL] | MIC (S. epidermidis MRO 02002) [µg/mL] | MIC (S. epidermidis MRO 02045) [µg/mL] | MIC (S. epidermidis MRO 02095) [µg/mL] | MIC [3] [µg/mL] | MIC (E. faecalis ATCC 29212) [µg/mL] | MIC (E. faecalis ATCC 51299) [µg/mL] | MIC (E. faecalis MRO 04035) [µg/mL] | MIC (E. faecalis MRO 04050) [µg/mL] | SMILES | MIC [2] [µg/mL] | further results
1 (≈ 1.94 µM) | 0.5 (≈ 0.968 µM) | 1 (≈ 1.94 µM) | 0.5 (≈ 0.968 µM) | 1 (≈ 1.94 µM) | 1 (≈ 1.94 µM) | 0.5 (≈ 0.968 µM) | 1 (≈ 1.94 µM) | 0.5 (≈ 0.968 µM) | 1 (≈ 1.94 µM) | 1 (≈ 1.94 µM) | 1 (≈ 1.94 µM) | 1 (≈ 1.94 µM) | 1 (≈ 1.94 µM) | 1 (≈ 1.94 µM) | 0.5 (≈ 0.968 µM) | 0.5 (≈ 0.968 µM) | 0.5 (≈ 0.968 µM) | 0.5 (≈ 0.968 µM) | COC(=S)NC[C@H]1CN(c2ccc(N3CCN(C(=O)COCc4ccccc4)CC3)c(F)c2)C(=O)O1 [Example 45, (S)—O-Methyl (3-(4-(4-(2-(benzyloxy)acetyl)piperazin-1-yl)-3-fluorophenyl)-2-oxooxazolidin-5-yl)methylcarbamothioate] | 0.5 (≈ 0.968 µM) | MIC (E. faecalis MRO 04205): 0.5 µg/mL (≈ 0.968 µM); MIC (E. faecium ATCC 700221): 0.5 µg/mL (≈ 0.968 µM); MIC (E. faecium MRO 04037): 0.5 µg/mL (≈ 0.968 µM); MIC (E. faecium MRO 04038): 0.5 µg/mL (≈ 0.968 µM); MIC (E. faecium MRO 04198): 0.5 µg/mL (≈ 0.968 µM); MIC [4]: 0.5 µg/mL (≈ 0.968 µM); MIC [5]: 2 µg/mL (≈ 3.87 µM); MIC [6]: 1 µg/mL (≈ 1.94 µM)
1 (≈ 2.29 µM) | 0.5 (≈ 1.15 µM) | 1 (≈ 2.29 µM) | 0.5 (≈ 1.15 µM) | 1 (≈ 2.29 µM) | 1 (≈ 2.29 µM) | 0.5 (≈ 1.15 µM) | 1 (≈ 2.29 µM) | 0.5 (≈ 1.15 µM) | 0.5 (≈ 1.15 µM) | 0.5 (≈ 1.15 µM) | 1 (≈ 2.29 µM) | 1 (≈ 2.29 µM) | 0.5 (≈ 1.15 µM) | 1 (≈ 2.29 µM) | 0.5 (≈ 1.15 µM) | 0.5 (≈ 1.15 µM) | 0.5 (≈ 1.15 µM) | 0.5 (≈ 1.15 µM) | COC(=S)NC[C@H]1CN(c2ccc(N3CCN(C(=O)C4CC4)CC3)c(F)c2)C(=O)O1 [Example 47, (S)—O-Methyl (3-(4-(4-(cyclopropanecarbonyl)piperazin-1-yl)-3-fluorophenyl)-2-oxooxazolidin-5-yl)methylcarbamothioate] | 0.5 (≈ 1.15 µM) | MIC (E. faecalis MRO 04205): 0.5 µg/mL (≈ 1.15 µM); MIC (E. faecium ATCC 700221): 0.5 µg/mL (≈ 1.15 µM); MIC (E. faecium MRO 04037): 0.5 µg/mL (≈ 1.15 µM); MIC (E. faecium MRO 04038): 0.5 µg/mL (≈ 1.15 µM); MIC (E. faecium MRO 04198): 0.5 µg/mL (≈ 1.15 µM); MIC [4]: 1 µg/mL (≈ 2.29 µM); MIC [5]: 2 µg/mL (≈ 4.58 µM); MIC [6]: 2 µg/mL (≈ 4.58 µM)

Source: patent US20100234390A1, “NOVEL COMPOUND AND THEIR USE” (priority 2007, published 2010)
